{
  "source": "patent US8202902B2",
  "about": "“Bivalent SMAC mimetics and the uses thereof” (The Regents of the University of Michigan, priority 2006, dated 2012)",
  "key": {"[1]": {"test_system": "cIAP-1 in cancer cell lines", "assay": "Induction of cIAP-1 degradation in cancer cells", "format": "cell-based"}, "[2]": {"test_system": "MDA-MB-231 xenograft model", "assay": "Inhibition of tumor growth in the MDA-MB-231 xenograft model", "format": "in vivo, mice", "procedure": "SM-164 was evaluated for its ability to inhibit tumor growth. […] Treatment with SM-164 at 5 mg/kg reduces the tumor volume from 147±54 mm^3 at the beginning of the treatment (day 25) to 54±32 mm^3 at the end of the treatment (day 36), a reduction of 65%. The strong antitumor activity by SM-164 is long lasting and not transient."}, "[3]": {"test_system": "MDA-MB-231, SK-OV-3 and MALME-3M cell lines", "assay": "Western blot analysis of caspase processing and PARP cleavage", "format": "cell-based", "procedure": "(§1) Treatment with SM-164 at 1 nM for 12 h induced 32%, 33%, and 37% of the MDA-MB-231, SK-OV-3 and MALME-3M cells to undergo apoptosis, respectively (FIGS. 12-14)."}, "[4]": {"test_system": "MDA-MB-231 xenograft tumor tissues", "assay": "cIAP-1 degradation and apoptosis in MDA-MB-231 xenograft tumor and normal tissues", "format": "in vivo, mice", "procedure": "To further investigate its therapeutic potential and in vivo mechanism, SM-164 was evaluated in the MDA-MB-231 xenograft model in mice. […] A single dose of SM-164 at 5 mg/kg decreased the level of cIAP-1 protein within 1 h and the effect lasted for at least 24 h. […] Apoptosis was examined by TUNEL staining using the In situ Cell Death Detection Kit (Roche Applied Science). To determine apoptosis in xenograft tumor and normal mouse tissues, severe combined immunodeficient (SCID) mice bearing established tumor were treated with Smac mimetics. Tissues were harvested and TUNEL staining was performed on formaldehyde-fixed, paraffin-embedded tissues. Paraffin-embedded tissue sections, mounted on slides, were deparaffinized and rehydrated by washing in a descending series of alcohol solutions (100%, 95%, 70% and 50%) and PBS. Antigen retrieval was performed by the microwave oven method using a commercially available antigen retrieval buffer (Covance Research Products, Inc.). Tissue sections were blocked with 3% BSA and 20% normal bovine serum in PBS for 30 min at room temperature (RT) to block unspecific binding sites. Tissue sections were incubated in 100 μl of TUNEL mixture [TUNEL mixture=10 μl of Enzyme solution (Vial 1)+90 μl of Label solution (Vial 2)] for 60 min at RT. Tissue section incubated in 90 μl of Label solution (Vial 2), instead of TUNEL mixture was used as negative control. Tissue section preincubated in DNase I recombination in 3000 U/ml of PBS, 1 mg/ml BSA for 10 min RT, followed by incubation with TUNEL mixture was used as positive control. Tissues slides were rinsed with PBS 5 min ×3, and stained with Propidium iodide and mounted and observed under a fluorescent microscope. […] The strong apoptosis induction by SM-164 was still evident at the 24 h time point. […] In contrast to the strong apoptosis induction and damage in xenograft tumor tissues, SM-164 has no effect on all the normal mouse tissues examined, including highly proliferative tissues such as the small intestine, stomach, liver and spleen (FIGS. 47-49).\nUsing the MDA-MB-231 xenograft model, SM-122 was also examined for its ability to induce cIAP-1 degradation and apoptosis in tumor tissues in vivo."}, "[5]": {"test_system": "SK-OV-3", "assay": "Cell growth inhibition, WST assay, SK-OV-3", "format": "cell-based", "conditions": "Homo sapiens", "procedure": "Cells were seeded in 96-well flat bottom cell culture plates at a density of 3000 cells/well with a tested compound and incubated at 37° C. in an atmosphere of 95% air and 5% CO2 for 4 days. The rate of cell growth inhibition after treatment with different concentrations of the compound was determined using a WST-8 kit (2-(2-methoxy-4-nitrophenyl)-3-(4-nitrophenyl)-5-(2, 4 disulfophenyl)-2H-tetrazolium monosodium salt; Dojindo Molecular Technologies, Inc., Gaithersburg, Md.). WST-8 was added at a final concentration of 10% to each well, and then the plates were incubated at 37° C. for 2-3 hrs. The absorbance of the samples was measured at 450 nm using a ULTRA Tecan Reader (Molecular Device)."}, "[6]": {"test_system": "MDA-MB-231 cells", "assay": "Trypan blue cell viability assay, MDA-MB-231", "format": "cell-based, human", "conditions": "100 nM, 2 days", "procedure": "(§2) 0.3×10^6 cells were seeded in 6 well plates and incubated at 37° C. in an atmosphere of 95% air and 5% CO2 without or with tested compound for 2 days. A 1:1 dilution of 0.4% Trypan blue (Invitrogen Corporation) was used to determine cell viability."}, "[7]": {"test_system": "MDA-MB-231, MALME-3M and SK-OV-3 cell lines", "assay": "Cell death induction with TNFα or TRAIL neutralizing antibody", "format": "cell-based"}, "[8]": {"test_system": "OVCAR-4 cells", "assay": "Trypan blue cell viability assay, OVCAR-4", "format": "cell-based", "conditions": "100 nM, 2 days", "procedure": "as §2"}, "[9]": {"test_system": "MALME-3M melanoma cell line", "assay": "Apoptosis assay (Annexin V/P.I.), MALME-3M", "format": "cell-based", "conditions": "1 nM for 12 h", "procedure": "Analysis of apoptosis was performed using an apoptosis detection kit (BioVision Research Products, Mountain View, Calif.) according to the manufacturer's protocol. Briefly, cells were treated with Smac mimetics for 12 hours, harvested and washed with ice-cold PBS. Cells were stained with Annexin V-FITC and Propidium iodide (P.I.) for 15 minutes at room temperature in the dark and immediately analyzed by FACS calibur flow cytometer (Becton Dickinson, Erembodegem, Belgium). Cells that were stained Annexin V (+) and P.I. (−) were considered early-stage apoptotic cells. Cells that were stained annexin V (+) and P.I. (+) were considered late-stage apoptotic cells and cells that were stained annexin V (−) and P.I. (+) were considered necrotic cells (FIG. 6).\nas §1"}, "[10]": {"biological_target": "cIAP-1 protein containing both BIR2 and BIR3 domains (Homo sapiens, UniProt Q13490)", "sequence (Q13490 174-352 limits assumed)": "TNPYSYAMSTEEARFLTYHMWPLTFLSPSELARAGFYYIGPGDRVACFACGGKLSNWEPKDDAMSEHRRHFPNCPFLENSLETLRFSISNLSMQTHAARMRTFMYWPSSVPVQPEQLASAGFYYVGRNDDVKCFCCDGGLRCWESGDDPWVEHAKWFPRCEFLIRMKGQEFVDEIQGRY", "assay": "Fluorescence-polarization based binding assay, cIAP-1 BIR2-BIR3"}, "[11]": {"test_system": "HCT116 and MDA-MB-453 cell lines", "assay": "Activity with exogenous TNFα in resistant cancer cell lines", "format": "cell-based"}, "[12]": {"test_system": "resistant cancer cell lines (MDA-MB-453 breast, DU-145 prostate, MDA-MB-435 melanoma)", "assay": "Secreted TNFα in cell culture medium (ELISA), resistant lines", "format": "cell-based", "procedure": "To explore whether the resistance of cancer cells to Smac mimetics is due to the lack of secreted TNFα, the levels of secreted TNFα were examined. Secreted TNFα concentrations were determined in 200 μl of cell culture medium using the Quantikine HS Human TNFα ELISA kit (R&D Systems). The assay was performed according to the manufacturer's instructions."}},
  "note": "pKi: −log10 of the molar value.",
  "data": [
    {"smiles": "CN[C@@H](C)C(=O)N[C@H]1CCCC[C@H]2CC[C@@H](C(=O)N[C@@H](c3ccccc3)c3cn(CCCCc4ccc(CCCCn5cc([C@@H](NC(=O)[C@@H]6CC[C@@H]7CCCC[C@H](NC(=O)[C@H](C)NC)C(=O)N76)c6ccccc6)nn5)cc4)nn3)N2C1=O", "note": "[SH-164]", "values": [
      {"measurement": "cIAP-1 level", "setting": "[1]; 1 nM for 60 min, sensitive cancer cell lines", "result": "reduced cIAP-1 markedly"},
      {"measurement": "cIAP-1 degradation", "setting": "[1]; 100 nM, SK-OV-3 cell line (FIG. 28)", "result": "rapid cIAP-1 degradation"},
      {"measurement": "cIAP-1 level / degradation", "setting": "[1]; 10-100 nM, sensitive cancer cell lines", "result": "undetectable levels"},
      {"measurement": "levels of XIAP protein", "setting": "[1]; MDA-MB-231 and SK-OV-3, 12-24 h time points", "result": "reduced"},
      {"measurement": "cIAP-1 degradation", "setting": "[1]; resistant cancer cell lines", "result": "rapid cIAP-1 degradation"},
      {"measurement": "tumor growth during the treatment", "setting": "[2]; 1 mg/kg", "result": "completely inhibits tumor growth"},
      {"measurement": "tumor volume at the beginning of the treatment", "setting": "[2]; 5 mg/kg, day 25", "result": "147±54", "unit": "mm^3"},
      {"measurement": "reduction of tumor volume", "setting": "[2]; 5 mg/kg, day 25 to day 36", "result": 65, "unit": "%"},
      {"measurement": "tumor volume at the end of the treatment", "setting": "[2]; 5 mg/kg, day 36", "result": "54±32", "unit": "mm^3"},
      {"measurement": "efficacy compared with TXT", "setting": "[2]; 5 mg/kg, end of treatment (p<0.01) or control tumor 750 mm^3 (p<0.02)", "result": "statistically more effective than TXT"},
      {"measurement": "weight loss or other sign of toxicity", "setting": "[2]; 1 or 5 mg/kg", "result": "no significant weight loss or other sign of toxicity"},
      {"measurement": "induction of cell death, caspase processing and PARP cleavage, comparison", "setting": "[3]; SM-164 at 1 nM", "result": "as effective as SM-122 at 1,000 nM"},
      {"measurement": "levels of pro-caspase-3, -8 and -9 (cleaved PARP increased)", "setting": "[3]; concentration as low as 1 nM", "result": "markedly decreased"},
      {"measurement": "activation of caspase-8, -9, and -3 and cleavage of PARP", "setting": "[4]; 3 h time point, persisted for 24 h", "result": "Robust activation"},
      {"measurement": "TUNEL positive tumor cells", "setting": "[4]; 6 h time point", "result": "more than 50%"},
      {"measurement": "H&E staining of tumor tissues", "setting": "[4]; mouse, in vivo", "result": "profound damage to tumor tissues"},
      {"measurement": "duration of cIAP-1 decrease", "setting": "[4]; single dose 5 mg/kg", "result": "at least 24 h"},
      {"measurement": "time to decrease of cIAP-1 protein level in tumor", "setting": "[4]; single dose 5 mg/kg", "result": "≤ 1", "unit": "h"},
      {"measurement": "effect on normal mouse tissues", "setting": "[4]; small intestine, stomach, liver, spleen etc.", "result": "no effect"},
      {"measurement": "IC50", "setting": "[5]", "result": "< 10", "unit": "nM"},
      {"measurement": "cell death", "setting": "[6]", "result": "at least 70%"},
      {"measurement": "cell death induction in presence of neutralizing antibodies", "setting": "[7]", "result": "effectively blocked by a TNFα, but not by a TRAIL, neutralizing antibody"},
      {"measurement": "cell death", "setting": "[8]", "result": "at least 70%"},
      {"measurement": "cells undergoing apoptosis", "setting": "[9]", "result": 37, "unit": "%"},
      {"measurement": "pKi", "setting": "[10]", "result": 9.51},
      {"measurement": "more potent than SM-122 to cIAP-1", "setting": "[10]", "result": 9, "unit": "times"},
      {"measurement": "effect of exogenous TNFα on activity", "setting": "[11]", "result": "significantly enhanced"},
      {"measurement": "induction of TNFα", "setting": "[12]", "result": "failed to induce detectable levels of TNFα"}
    ]}
  ]
}
